The experiment addresses T1, KCNT1 (KNa1.1, Slack) (Homo sapiens, UniProt Q5JUK3).
T1 construct: expressed in transfected cells; host or cells: HEK-TREX (tetracycline-inducible HEK cell line)
T1 sequence (Q5JUK3 1-1230): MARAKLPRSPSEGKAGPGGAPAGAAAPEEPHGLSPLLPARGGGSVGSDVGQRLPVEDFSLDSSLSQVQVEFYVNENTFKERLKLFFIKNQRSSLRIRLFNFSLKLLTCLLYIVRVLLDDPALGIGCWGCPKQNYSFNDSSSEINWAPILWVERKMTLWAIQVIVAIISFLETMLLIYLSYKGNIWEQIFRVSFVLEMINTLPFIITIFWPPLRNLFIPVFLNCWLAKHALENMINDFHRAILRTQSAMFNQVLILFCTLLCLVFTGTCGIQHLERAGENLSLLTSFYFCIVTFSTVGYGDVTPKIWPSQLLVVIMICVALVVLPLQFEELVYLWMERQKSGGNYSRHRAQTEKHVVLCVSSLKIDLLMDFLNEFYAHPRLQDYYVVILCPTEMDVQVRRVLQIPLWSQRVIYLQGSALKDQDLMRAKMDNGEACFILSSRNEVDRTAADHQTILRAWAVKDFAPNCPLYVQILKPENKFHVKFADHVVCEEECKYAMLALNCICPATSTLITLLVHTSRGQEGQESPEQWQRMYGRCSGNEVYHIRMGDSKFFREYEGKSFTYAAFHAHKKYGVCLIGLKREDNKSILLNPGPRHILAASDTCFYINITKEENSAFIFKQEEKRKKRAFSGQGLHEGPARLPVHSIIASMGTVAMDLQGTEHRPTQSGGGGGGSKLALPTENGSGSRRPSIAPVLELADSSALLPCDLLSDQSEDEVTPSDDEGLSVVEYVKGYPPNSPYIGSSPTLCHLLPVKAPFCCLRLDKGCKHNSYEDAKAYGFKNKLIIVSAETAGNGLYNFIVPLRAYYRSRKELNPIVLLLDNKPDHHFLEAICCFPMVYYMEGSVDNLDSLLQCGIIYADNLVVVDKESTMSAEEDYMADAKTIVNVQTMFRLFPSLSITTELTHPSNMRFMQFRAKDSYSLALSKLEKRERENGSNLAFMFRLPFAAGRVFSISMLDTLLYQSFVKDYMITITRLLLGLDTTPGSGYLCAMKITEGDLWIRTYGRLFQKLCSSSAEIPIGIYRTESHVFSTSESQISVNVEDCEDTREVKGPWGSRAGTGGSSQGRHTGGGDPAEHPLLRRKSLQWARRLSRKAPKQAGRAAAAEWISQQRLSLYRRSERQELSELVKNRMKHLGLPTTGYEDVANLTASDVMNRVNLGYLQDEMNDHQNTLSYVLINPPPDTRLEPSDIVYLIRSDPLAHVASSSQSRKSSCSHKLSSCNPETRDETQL
Description: KCNT1 patch clamp assay (SyncroPatch 384PE automated patch clamp). Type of experiment: cell-based. As to conditions: tetracycline inducible HEK-TREX cell line; perforated patch; step from −80 mV to 0 mV; room temperature; read-out: KCNT1-WT IC50. The essentials:
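Tetracycline-inducible HEK-TREX cells; perforated-patch (10 μM escin) population recordings at room temperature, holding −80 mV with 100 ms step to 0 mV.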

Experimental findings from patent US20220259193A1, “KCNT1 INHIBITORS AND METHODS OF USE” (Praxis Precision Medicines, Inc., priority 2019, published 2022) are described below.

As usually defined, the IC50 is the concentration needed to halve the response being measured. As to `C[C@H](NC(=O)c1cc(C(F)F)nn1C)c1nc(-c2ccnc(C3CC3)c2)no1` [Compound 229, (S)—N-(1-(3-(2-cyclopropylpyridin-4-yl)-1,2,4-oxadiazol-5-yl)ethyl)-3-(difluoromethyl)-1-methyl-1H-pyrazole-5-carboxamide], the IC50 was not above 1 µM.

Take `C[C@H](NC(=O)c1cc(C(F)(F)F)nn1CC(=O)N(C)C)c1nc(-c2ccnc(C3CC3)c2)no1` [Compound 230, (S)—N-(1-(3-(2-cyclopropylpyridin-4-yl)-1,2,4-oxadiazol-5-yl)ethyl)-1-(2-(dimethylamino)-2-oxoethyl)-3-(trifluoromethyl)-1H-pyrazole-5-carboxamide]: the half-inhibitory concentration (IC50) is not above 1 µM.

As to `CC[C@H](NC(=O)c1cc(C)nn1-c1cccnc1)c1nc(-c2ccnc(C)c2)no1` [Compound 231, (S)-3-methyl-N-(1-(3-(2-methylpyridin-4-yl)-1,2,4-oxadiazol-5-yl)propyl)-1-(pyridin-3-yl)-1H-pyrazole-5-carboxamide], the concentration for half-maximal inhibition (IC50) lay in the range of 1 to 20 µM.

Take `Cc1cccc(-c2noc([C@@H](C)NC(=O)c3cn(C(C)C)nc3C)n2)c1` [Compound 232, 1-isopropyl-3-methyl-N-[(1R)-1-[3-(m-tolyl)-1,2,4-oxadiazol-5-yl]ethyl]pyrazole-4-carboxamide]: the IC50 was not below 20 µM.

Consider `Cc1cccc(-c2noc([C@H](C)NC(=O)c3cn(C(C)C)nc3C)n2)c1` [Compound 233], for which the IC50 is not above 1 µM.

For the molecule `C[C@H](NC(=O)c1cn(C)nc1C(F)F)c1nc(-c2ccnc(C(F)(F)F)c2)no1` [Compound 235], the IC50 is not above 1 µM.

Turning to `CC[C@H](NC(=O)c1cc(C(F)(F)F)nn1C)c1nc(-c2ccnc(C(F)(F)F)c2)no1` [Compound 236, (S)-1-methyl-3-(trifluoromethyl)-N-(1-(3-(2-(trifluoromethyl)pyridin-4-yl)-1,2,4-oxadiazol-5-yl)propyl)-1H-pyrazole-5-carboxamide], the IC50 is not above 1 µM.

Turning to `C[C@H](NC(=O)c1cc(C(F)(F)F)nn1C)c1nc(-c2nccc(C(F)(F)F)n2)no1` [Compound 237, (S)-1-methyl-3-(trifluoromethyl)-N-(1-(3-(4-(trifluoromethyl)pyrimidin-2-yl)-1,2,4-oxadiazol-5-yl)ethyl)-1H-pyrazole-5-carboxamide], the IC50 was not below 20 µM.

As to `C[C@H](NC(=O)c1cc(C(F)F)nn1C)c1nc(-c2ccnc(C(F)(F)F)c2)no1` [Compound 238], the IC50 was not above 1 µM.

Regarding `COCCn1nc(C(F)(F)F)cc1C(=O)N[C@@H](C)c1nc(-c2ccnc(C(F)(F)F)c2)no1` [Compound 239, (S)-1-(2-methoxyethyl)-3-(trifluoromethyl)-N-(1-(3-(2-(trifluoromethyl)pyridin-4-yl)-1,2,4-oxadiazol-5-yl)ethyl)-1H-pyrazole-5-carboxamide], the IC50 is not above 1 µM.

Regarding `C[C@H](NC(=O)c1cc(C(F)(F)F)nn1C)c1nc(-c2ccnc(C3(C)CC3)c2)no1` [Compound 240, (S)-1-methyl-N-(1-(3-(2-(1-methylcyclopropyl)pyridin-4-yl)-1,2,4-oxadiazol-5-yl)ethyl)-3-(trifluoromethyl)-1H-pyrazole-5-carboxamide], the IC50 was not above 1 µM.

As for `C[C@H](NC(=O)c1cc(C(F)(F)F)nn1Cc1ccccc1)c1nc(-c2ccnc(C(F)(F)F)c2)no1` [Compound 241, (S)-1-benzyl-3-(trifluoromethyl)-N-(1-(3-(2-(trifluoromethyl)pyridin-4-yl)-1,2,4-oxadiazol-5-yl)ethyl)-1H-pyrazole-5-carboxamide], the IC50 is not above 1 µM.

As for `C[C@H](NC(=O)c1cc(C(F)(F)F)nn1C)c1nc(-c2ccnc(C(F)(F)F)n2)no1` [Compound 242, (S)-1-methyl-3-(trifluoromethyl)-N-(1-(3-(2-(trifluoromethyl)pyrimidin-4-yl)-1,2,4-oxadiazol-5-yl)ethyl)-1H-pyrazole-5-carboxamide], the IC50 is 1 to 20 µM.
